1 compound from article PMC7725506, “Functional Diversification of SRSF Protein Kinase to Control Ubiquitin-Dependent Neurodevelopmental Signaling” (Developmental Cell, 2020) can be followed below.

Experiment [1] concerns Foxp1 exon 16-16b alternative splicing switch. Briefly: Foxp1 exon 16-16b incorporation in mESCs by quantitative RT-PCR. In kind it is cell-based, mouse. As to conditions: 1 μM, 8 h. As to the method: SRSF phosphorylation, SRPK1, SRPK2, and ERK1/2 levels were determined by immunoblotting. Expected positions of SRSFs that are not detected are shown in gray. Quantification of SRSF phosphorylation (Right). Data represented as mean ± SEM (n = 4). […] Neuro 2a is a control for exon 16b exclusion in differentiated cells (Bottom). Data represented as mean ± SEM (n = 3). […] Exon 16 inclusion: (^∗∗∗∗) p < 0.0001, Exon 16b inclusion: (^∗) p = 0.0164, p = 0.0485, and p = 0.0489 (left to right). Ratio exon 16b/16: (^∗∗∗∗) p < 0.0001, (^∗∗∗) p = 0.0003. (C) SRPK substrates predicted using ScanProsite and grouped according to UniProt functions. (D) RNF12 phosphorylation sites detected by mass-spectrometry. LZL, leucine-zipper like; NLS, nuclear localization signal; NES, nuclear export signal; RING, RING E3 ubiquitin ligase catalytic domain. (E) CMGC family kinase copy numbers in mESCs determined by quantitative proteomics and represented using Kinoviewer. (F) CMGC kinase (200 mU) phosphorylation of the RNF12 SR-motif in vitro was determined by immunoblotting for RNF12 phospho-Ser214 and total RNF12. […] Normalized RNF12 Ser214 phosphorylation is shown below. Data represented as mean ± SEM (n = 3). […] RNF12 SR-motif phosphorylation was analyzed by immunoblotting for RNF12 phospho-Ser214 and RNF12. SRPK1 and SRPK2 levels are shown as a loading control, Related to Figure S1; Tables S1 and S2.
Total RNA extraction and reverse transcription was performed as described. Quantitative PCR reactions using SsoFast EvaGreen Supermix (Bio-Rad) were performed in a CFX384 real time PCR system (Bio-Rad). Relative RNA expression was calculated through the ΔΔCt method and normalised to Gapdh expression. Data was analysed in Excel (Microsoft) and statistical analysis performed in GraphPad Prism v7.0c software (GraphPad Software Inc.).

For experiment [2], the target named is 50 representative kinases. The experiment in a line: Kinase inhibitor profiling, in vitro kinase assays for 50 representative kinases. As to conditions: 1 μM, SRPK1 compared with 49 other kinases. In kind it is biochemical. As to the method:
Kinase activity towards specific peptides was assessed in comparison to DMSO control. Full details are available at http://www.kinase-screen.mrc.ac.uk/services/express-screen.
Supplemental Figure Legends
Figure S1. Differential inhibitor sensitivities and expression profiles of SRPK kinases (Related to Figure 1). (A) Wild-type (WT) mESCs were analysed for protein copy number by absolute quantitative proteomics. SRPK1, SRPK2 and SRPK3 protein copy numbers are shown.
Data are represented as mean ± S.E.M. (n=3). Unpaired Student’s t test, two-sided, confidence level 95%. (****) P<0.0001. ND = not detected. (B) Inhibition of RNF12 phosphorylation in vitro by SRPK1 and SRPK2 in the presence of varying concentrations of the indicated SRPK inhibitors was determined by immunoblotting for RNF12 phospho-Ser214 (Left). RNF12 levels are shown as a control. Immunoblots were quantified to generate SRPK inhibitor dose-response curves for inhibition of RNF12 phosphorylation by SRPK1 and SRPK2 in vitro (Right). (C) WT, Srpk1-/- and Srpk2-/- mESCs were cultured and SRPK protein expression was analysed via immunoblotting. […]
SR-motif phosphorylation of HA-immunoprecipitated RNF12 analysed by phos-tag immunoblotting. […]
(DYRK1A inhibitor), WEHI-345 (RIPK2 inhibitor), IRAK-4-Inhibitor-a (IRAK4 inhibitor) and GSK-461364 (PLK1/2 inhibitor) for 4 h, and RNF12 phosphorylation analysed via phos-tag immunoblotting. […]

For the compound `CCc1cc2c(cc1-c1cccc(S(=O)(=O)F)c1)C(C)(C)c1[nH]c3cc(C#N)ccc3c1C2=O` [SRPKIN-1], the “Foxp1 exon 16b-exon 16 inclusion” value in experiment [1] is “little effect”. Moreover, in experiment [2], the kinase inhibition specificity result is “highly specific”.
